Converted amounts (≈) assume the structure as drawn. The source made the active and inactive calls. The calls are words filed in the database; no cut-off is given here.

In data set [1] the target is T1, Replicase polyprotein 1a (Severe acute respiratory syndrome-related coronavirus, UniProt P0C6U8). Kind of data set: (§1) Inhibition of SARS-CoV 3CLpro expressed in Escherichia coli BL21 (DE3) by FRET assay.
Data set [2] has as its target Replicase polyprotein 1a (Severe acute respiratory syndrome-related coronavirus) (UniProt P0C6U8). As to the kind of experiment: Inhibition of SARS-CoV 3CLpro expressed in Escherichia coli BL21 (DE3) at 100 uM by FRET assay in presence of 0.01% Triton X-100.
Data set [3] in a line: Ratio of EC50 for SARS-CoV infected in african green monkey Vero E6 cells to Ki for SARS-CoV 3CLpro. Also noted: species or system Severe acute respiratory syndrome-related coronavirus.
The target in data set [4] is Replicase polyprotein 1a (Severe acute respiratory syndrome-related coronavirus) (UniProt P0C6U8). Described as §1.
Data set [5] can be described thus: Aqueous solubility of the compound in PBS buffer at pH 7.4 after 4 hrs by HPLC with UV detection analysis. The data set is classed as physicochemical.
Data set [6] in a line: Inhibition of SARS-CoV PL-pro after 10 mins by luminescence assay. More on the design: species or system Severe acute respiratory syndrome-related coronavirus.
Data set [7] has as its system Murine coronavirus. Kind of data set: Inhibition of mouse coronavirus 3CLpro expressed in Escherichia coli BL21 (DE3) at 100 uM by FRET assay in absence of 0.01% Triton X-100.
The subject of data set [8] is Human coronavirus HKU1. Kind of data set: Inhibition of human coronavirus HKU1 3CLpro expressed in Escherichia coli BL21 (DE3) at 100 uM by FRET assay in absence of 0.01% Triton X-100.
The target in data set [9] is Replicase polyprotein 1a (Severe acute respiratory syndrome-related coronavirus) (UniProt P0C6U8). Kind of data set: Inhibition of SARS-CoV 3CLpro expressed in Escherichia coli BL21 (DE3) at 100 uM by FRET assay in absence of 0.01% Triton X-100.
The target of data set [10] is T1, Replicase polyprotein 1a. Kind of data set: Inhibition of SARS-CoV 3CLpro expressed in Escherichia coli BL21 (DE3) after 2 hrs by FRET assay.
For data set [11], the system named is Murine coronavirus. Kind of data set: Inhibition of mouse coronavirus 3CLpro expressed in Escherichia coli BL21 (DE3) at 100 uM by FRET assay in presence of 0.01% Triton X-100.
The subject of data set [12] is Human coronavirus HKU1. As to the kind of experiment: Inhibition of human coronavirus HKU1 3CLpro expressed in Escherichia coli BL21 (DE3) at 100 uM by FRET assay in presence of 0.01% Triton X-100.
Data set [13] is described as follows: Cytotoxicity against african green monkey Vero E6 cells assessed as cell death at […] after 48 hrs by CellTiter-Glo luminescent cell viability assay. Format: cell-based. As to conditions: chlorocebus sabaeus.
The nature of data set [14]: Cytotoxicity against african green monkey Vero E6 cells after 48 hrs by CellTiter-Glo luminescent cell viability assay. The data set is classed as cell-based. The following applies: chlorocebus sabaeus. For orientation: ATP-based viability assays read luminescence as a measure of living cells.

For orientation: IC50 means the midpoint of a concentration-inhibition curve. `CCN(CC)c1ccc(C(=O)On2nnc3ccccc32)cc1` returned an IC50 in [1] of 11.1 µM.

One may read the inhibition as the relative decrease from the control value, in per cent. As for `CC(C)(C)NC(=O)C(c1cccnc1)N(C(=O)c1ccccn1)c1ccc(C(C)(C)C)cc1` (stereo not drawn), the inhibition in data set [2] is more than 49%.

Compound `CC(C)(C)NC(=O)C(c1cccnc1)N(C(=O)C1=NC=NC1)c1ccc(C(C)(C)C)cc1` (stereo not drawn) showed an IC50 in data set [1] of 6 µM. In data set [2], the inhibition is more than 49%.

For the compound `COc1ccc(C(=O)N(c2ccc(C(C)(C)C)cc2)C(C(=O)NC(C)(C)C)c2cccnc2)cc1` (stereo not drawn), the inhibition in [2] was more than 49%.

Take `CC(C)(C)NC(=O)C(c1cccnc1)N(C(=O)c1ccc(Cl)cc1)c1ccc(C(C)(C)C)cc1` (stereo not drawn): the inhibition in [2] was more than 49%.

Take `CC[C@H](NC(=O)[C@@H](NC(=O)OCc1ccccc1)[C@@H](C)OC(C)(C)C)C(=O)N[C@H](C=O)C[C@@H]1CCNC1=O`: the Ratio in data set [3] came out at 11.5.

On to `CC(C)(C)NC(=O)C(c1cccnc1)N(C(=O)c1ncc[nH]1)c1ccc(C(C)(C)C)cc1` (stereo not drawn), for which, in data set [2], the inhibition was determined as 49%.

In turn, `CC(C)(C)NC(=O)C(c1cccnc1)N(C(=O)c1cccs1)c1ccc(C(C)(C)C)cc1` (stereo not drawn) gave an IC50 in data set [1] of 50 µM. For the same compound, the inhibition in data set [2] is more than 49%.

In the case of `CC(C)(C)NC(=O)C(c1ccsc1)N(C(=O)c1ccco1)c1ccc(C(C)(C)C)cc1` (stereo not drawn), the inhibition entry in [4] is “inactive”. Further, the inhibition in data set [2] is 11%.

The solubility is the dissolved amount per volume that the medium holds. `CC(C)(C)NC(=O)[C@@H](c1cccnc1)N(C(=O)c1ccco1)c1ccc(C(C)(C)C)cc1` came in with a solubility at 4 h in data set [5] of 219 µM (≈ 94.9 µg/mL).

For `O=C(Oc1cncc(Br)c1)c1cccs1`, the IC50 in [1] is 0.5 µM.

In the case of `CC(C)(C)NC(=O)C(c1cc[nH]n1)N(C(=O)c1ccco1)c1ccc(C(C)(C)C)cc1` (stereo not drawn), in [2], the inhibition was less than 15%.

Turning to `CCC(C)c1ccc(N(C(=O)c2ccco2)C(C(=O)NC2CCCC2)c2cccnc2)cc1` (stereo not drawn), the values for the IC50 in data set [1] and in data set [6] were 2.2 µM and 34 µM, respectively.

In the case of `COc1ccccc1C(=O)N(c1ccc(C(C)(C)C)cc1)C(C(=O)NC(C)(C)C)c1cccnc1` (stereo not drawn), the inhibition in data set [2] is more than 49%.

On to `CC(C)(C)NC(=O)C(c1cccnc1)N(C(=O)Cc1ccccc1)c1ccc(C(C)(C)C)cc1` (stereo not drawn), for which the inhibition in data set [2] was more than 49%.

In the case of `CC(C)(C)NC(=O)C(c1cccnc1)N(C(=O)CO)c1ccc(C(C)(C)C)cc1` (stereo not drawn), the inhibition in data set [2] was more than 49%.

Regarding `CC(C)(C)NC(=O)C(c1cccnc1)N(C(=O)c1ncccn1)c1ccc(C(C)(C)C)cc1` (stereo not drawn), in data set [2], the inhibition is more than 49%.

Turning to `CC(C)CC(=O)N(c1ccc(C(C)(C)C)cc1)C(C(=O)NC(C)(C)C)c1cccnc1` (stereo not drawn), in [2], the inhibition was more than 49%.

In turn, `CC(C)(C)NC(=O)C(c1cccnc1)N(C(=O)c1ccc(Cl)o1)c1ccc(C(C)(C)C)cc1` (stereo not drawn) displayed an IC50 in data set [1] of 5.2 µM. The inhibition in [2] was more than 49%.

`CC(C)(C)NC(=O)C(c1cccnc1)N(C(=O)c1ccc(O)cc1)c1ccc(C(C)(C)C)cc1` (stereo not drawn): the inhibition in data set [2] is more than 49%.

For `CC(C)(C)NC(=O)C(c1cccnc1)N(C(=O)C1CCCO1)c1ccc(C(C)(C)C)cc1` (stereo not drawn), the inhibition in data set [2] is more than 49%.

With `Cc1ccoc1C(=O)N(c1ccc(C(C)(C)C)cc1)C(C(=O)NC(C)(C)C)c1cccnc1` (stereo not drawn), the inhibition in [2] amounted to 53%.

In the case of `CC(C)(C)NC(=O)C(c1cccnc1)N(C(=O)c1cn[nH]c1)c1ccc(C(C)(C)C)cc1` (stereo not drawn), the inhibition in data set [2] was more than 49%.

What is called CC50 is the concentration giving 50% cytotoxicity. As to `CN(C)CCCSc1ccccc1NC(=O)/C=C/c1ccccc1` [CINANSERIN], the inhibition result in [7], in [8], in [9], in data set [11], in data set [12] and in data set [2] was “inactive” each time. The same compound gave an IC50 in data set [10] of 5 µM. Also, in data set [13], the Activity is on record as more than 90%. For the same compound, in [14], the CC50 at 48 h was determined as 31 µM. Further, the CC90 at 48 h in data set [14] amounted to 66 µM.

As to `CC(C)(C)NC(=O)C(c1cn[nH]c1)N(C(=O)c1ccco1)c1ccc(C(C)(C)C)cc1` (stereo not drawn), in [2], the inhibition was found to be 16%.

As to `CC(C)c1ccc(N(C(=O)c2ccco2)C(C(=O)NC(C)(C)C)c2cccnc2)cc1` (stereo not drawn), the IC50 in data set [1] came to 28.1 µM.

In the case of `CC(C)(C)NC(=O)C(c1cccnc1)N(C(=O)Cc1cnc[nH]1)c1ccc(C(C)(C)C)cc1` (stereo not drawn), the inhibition in [2] was more than 49%.

Regarding `CC(C)(C)NC(=O)C(c1c[nH]cn1)N(C(=O)c1ccco1)c1ccc(C(C)(C)C)cc1` (stereo not drawn), the inhibition in [2] is 23%.

In the case of `Cn1cnc(C(=O)N(c2ccc(C(C)(C)C)cc2)C(C(=O)NC(C)(C)C)c2cccnc2)c1` (stereo not drawn), the IC50 in data set [1] amounted to 75 µM. In addition, in data set [2], the inhibition is more than 49%.

As for `CC(C)(C)NC(=O)C(c1cccnc1)N(C(=O)c1ccc[nH]1)c1ccc(C(C)(C)C)cc1` (stereo not drawn), in data set [2], the inhibition was more than 49%.

`CC(C)(C)NC(=O)C(c1c[nH]nn1)N(C(=O)c1ccco1)c1ccc(C(C)(C)C)cc1` (stereo not drawn): in data set [2], the inhibition is 23%.

In the case of `Cc1ccc(C(C(=O)NC(C)(C)C)N(C(=O)c2ccco2)c2ccc(C(C)(C)C)cc2)cn1` (stereo not drawn), the inhibition in data set [2] is less than 15%.

Consider `CC(C)(C)NC(=O)C(c1ccnnc1)N(C(=O)c1ccco1)c1ccc(C(C)(C)C)cc1` (stereo not drawn), for which the half-maximal inhibitory concentration (IC50) in data set [1] came out at 10 µM.

In the case of `C=C(Cc1cccc(C)c1)C1=CC=C(c2ccc(C)cc2)C1`, in data set [1], the IC50 worked out at 13 µM.

In the case of `CC(C)(C)NC(=O)C(c1cccnc1)N(C(=O)c1ccco1)c1ccc(F)cc1` (stereo not drawn), the inhibition result in [4] was “inactive”.

In the case of `CC(C)(C)NC(=O)C(c1cccnc1)N(C(=O)CC(F)(F)F)c1ccc(C(C)(C)C)cc1` (stereo not drawn), the inhibition in data set [2] was determined as 57%.

`CC(C)(C)NC(=O)C(c1ccccn1)N(C(=O)c1ccco1)c1ccc(C(C)(C)C)cc1` (stereo not drawn): in data set [2], the inhibition was less than 15%.

`COc1cccc(C(=O)N(c2ccc(C(C)(C)C)cc2)C(C(=O)NC(C)(C)C)c2cccnc2)c1` (stereo not drawn): the inhibition in [2] was more than 49%.

For the compound `CC(C)(C)NC(=O)C(c1cccnc1)N(C(=O)c1ccc(F)cc1)c1ccc(C(C)(C)C)cc1` (stereo not drawn), in data set [2], the inhibition is more than 49%.

For the compound `Cc1ccc(C(=O)N(c2ccc(C(C)(C)C)cc2)C(C(=O)NC(C)(C)C)c2cccnc2)o1` (stereo not drawn), in data set [2], the inhibition was found to be 55%.

With `CC(C)(C)NC(=O)C(c1cccnc1)N(C(=O)c1ccncc1)c1ccc(C(C)(C)C)cc1` (stereo not drawn), in data set [2], the inhibition was more than 49%.

In data set [1], `CC(C)(C)NC(=O)C(c1ccncc1)N(C(=O)c1ccco1)c1ccc(C(C)(C)C)cc1` (stereo not drawn) gave an IC50 of 45 µM.

On to `CC(C)(C)NC(=O)C(c1cccnc1)N(C(=O)c1cccc(O)c1)c1ccc(C(C)(C)C)cc1` (stereo not drawn), for which the inhibition in data set [2] was more than 49%.

As to `CC(C)(C)NC(=O)C(c1cccnc1)N(C(=O)c1ccco1)C1CC1` (stereo not drawn), in data set [4], the inhibition entry was “inactive”.

For the compound `CC(C)(C)NC(=O)C(c1cccnc1)N(C(=O)c1cc[nH]n1)c1ccc(C(C)(C)C)cc1` (stereo not drawn), the inhibition in data set [2] amounted to 56%.

Consider `COCC(=O)N(c1ccc(C(C)(C)C)cc1)C(C(=O)NC(C)(C)C)c1cccnc1` (stereo not drawn), for which, in [2], the inhibition is more than 49%.

Consider `CC(C)(C)NC(=O)C(c1cccnc1)N(C(=O)c1ccccc1O)c1ccc(C(C)(C)C)cc1` (stereo not drawn), for which, in [2], the inhibition was more than 49%.

`CC(C)(C)NC(=O)C(c1cccnc1)N(C(=O)c1cnco1)c1ccc(C(C)(C)C)cc1` (stereo not drawn) showed an IC50 in data set [1] of 39 µM. For the same compound, the inhibition in data set [2] was more than 49%.

Turning to `CC(C)(C)NC(=O)C(c1cccnc1)N(C(=O)c1cccnc1)c1ccc(C(C)(C)C)cc1` (stereo not drawn), the inhibition in data set [2] is more than 49%.

On to `CC(C)(C)NC(=O)C(c1cccnc1)N(C(=O)c1ncco1)c1ccc(C(C)(C)C)cc1` (stereo not drawn), for which half-maximal inhibition in [1] (IC50) was put at 47 µM. Also, in data set [2], the inhibition is more than 49%.

For `CC(C)(C)NC(=O)C(c1cnccn1)N(C(=O)c1ccco1)c1ccc(C(C)(C)C)cc1` (stereo not drawn), the IC50 in data set [1] came out at 5.5 µM.

The values are drawn from ChEMBL document CHEMBL2311314 (J Med Chem, 2013).
